Assay [1] addresses T1, Eukaryotic translation initiation factor 2-alpha kinase 3 (Homo sapiens, UniProt Q9NZJ5). The assay is described as follows: Dose response cell-based high-throughput screening assay to measure PERK inhibition. [Related pubchem assays: 1416 ]. It counts as functional.
The target of assay [2] is T1, Eukaryotic translation initiation factor 2-alpha kinase 3. Nature of the assay: Counterscreen assay for PERK inhibitors: Dose response cell-based high throughput screening assay to measure inhibition of PERK at 6 hours. [Related pubchem assays: 1522, 1416 ]. The class given is functional. (In general: The purpose of a counterscreen is to sort out artefacts and off-target activity.)

Assay [3] in a line: luciferase reporter signal suppression in cells – H4 neuroglioma cells, luminescence, dose response (AID 1990). The class given is functional, cell-based. (In a reporter assay the amount or activity of a reporter protein is the signal.)
Assay [4] is described as follows: luciferase reporter signal reduction – luminescence, H4-C neuroglioblastoma cells, dose response (AID 2458).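 Also: H4 neuroglioblastoma cells stably carrying a luciferase reporter gene fusion.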 It counts as functional, cell-based.
A further assay in a line: cells. The class given is functional, cell-based.
Assay [5] in a line: alpha-synuclein stem-loop luciferase translation blockers – H4 neuroglioma cells, luminescence, confirmation (AID 1988). It counts as functional, cell-based.
A short description of assay [6]: alpha-synuclein stem-loop translation blockers – luminescence, H4 neuroglioblastoma cells, dose confirmation, confirmation (AID 2454).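 Also: H4 neuroglioblastoma cells carrying an alpha-synuclein 5'UTR luciferase reporter; potency for inhibition of the luciferase signal.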 The class given is functional, cell-based.
Assay [7] in a line: HEK-293T viability loss after treatment – luminescence, T-cell screen hits, cytotoxicity control for TCR NF-kB inhibitor project, dose response (AID 489026).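 Also: cells exposed to compound about 14 hours before the viability readout.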 The class given is functional, cell-based.
The target in another assay is T2, Protein Rev (Human immunodeficiency virus type 1 group M subtype B (isolate HXB2)(HIV-1), UniProt P04618).
T2 sequence (P04618 whole entry): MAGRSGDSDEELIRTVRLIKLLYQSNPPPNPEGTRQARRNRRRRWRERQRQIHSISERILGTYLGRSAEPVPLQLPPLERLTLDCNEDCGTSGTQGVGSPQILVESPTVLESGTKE
Nature of the assay: blockers of HIV Rev/RRE RNA complex – biochemical, fluorescence polarization, HIV-1, dose response (AID 434976). The arrangement: species or system Human immunodeficiency virus 1.

For assay [8], the target named is T3, Heat shock 70 kDa protein 1A (Homo sapiens, UniProt P0DMV8). Nature of the assay: small-molecule inhibition of Hsp70 – biochemical, TR-FRET (AID 786). (In general: TR-FRET usually uses a lanthanide donor and a delayed reading to cut background.)
Assay [9] deals with T4, Female germline-specific tumor suppressor gld-1 (Caenorhabditis elegans, UniProt Q17339).
T4 sequence (Q17339 whole entry): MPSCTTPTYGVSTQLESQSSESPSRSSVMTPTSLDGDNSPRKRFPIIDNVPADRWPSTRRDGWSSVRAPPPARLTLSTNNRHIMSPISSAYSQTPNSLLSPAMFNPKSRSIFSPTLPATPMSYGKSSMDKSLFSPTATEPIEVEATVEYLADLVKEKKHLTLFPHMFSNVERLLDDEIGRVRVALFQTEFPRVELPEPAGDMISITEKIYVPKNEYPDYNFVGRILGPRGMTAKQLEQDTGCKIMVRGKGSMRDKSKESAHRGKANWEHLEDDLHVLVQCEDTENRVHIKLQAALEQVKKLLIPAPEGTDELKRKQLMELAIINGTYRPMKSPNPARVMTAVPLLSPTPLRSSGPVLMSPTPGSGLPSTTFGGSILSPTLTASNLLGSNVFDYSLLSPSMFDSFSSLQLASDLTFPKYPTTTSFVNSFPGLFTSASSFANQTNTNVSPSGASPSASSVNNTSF
Nature of the assay: blockers of GLD-1/TGE RNA complex formation – biochemical, fluorescence polarization, C. elegans, dose response (AID 2802).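 Also: fluorescence polarization of labeled TGE RNA bound by purified gld-1 protein.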

The target of assay [10] is T5, RNA-binding protein pos-1 (Caenorhabditis elegans, UniProt G5EF15).
T5 sequence (G5EF15 whole entry): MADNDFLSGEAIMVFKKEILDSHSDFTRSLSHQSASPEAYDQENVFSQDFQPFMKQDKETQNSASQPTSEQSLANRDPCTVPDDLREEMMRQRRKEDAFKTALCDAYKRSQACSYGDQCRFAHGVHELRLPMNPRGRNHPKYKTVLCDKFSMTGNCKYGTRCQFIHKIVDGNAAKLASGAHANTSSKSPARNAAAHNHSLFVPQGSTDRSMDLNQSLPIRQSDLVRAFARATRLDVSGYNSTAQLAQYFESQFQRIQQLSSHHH
Nature of the assay: disruptors of C. elegans POS-1 RNA interaction – biochemical, fluorescence polarization, dose response (AID 1964).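 Also: purified POS-1 fused to maltose binding protein made in E. coli; potency of compounds blocking POS-1 binding to fluorescent RNA.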

Assay [11] deals with T3, Heat shock 70 kDa protein 1A. The assay is described as follows: small molecules displacing fluorescent ligand from Hsp70 – biochemical, fluorescence polarization, primary screen (AID 583).
In assay [12] the target is T6, Zinc finger protein mex-5 (Caenorhabditis elegans, UniProt Q9XUB2).
T6 sequence (Q9XUB2 whole entry): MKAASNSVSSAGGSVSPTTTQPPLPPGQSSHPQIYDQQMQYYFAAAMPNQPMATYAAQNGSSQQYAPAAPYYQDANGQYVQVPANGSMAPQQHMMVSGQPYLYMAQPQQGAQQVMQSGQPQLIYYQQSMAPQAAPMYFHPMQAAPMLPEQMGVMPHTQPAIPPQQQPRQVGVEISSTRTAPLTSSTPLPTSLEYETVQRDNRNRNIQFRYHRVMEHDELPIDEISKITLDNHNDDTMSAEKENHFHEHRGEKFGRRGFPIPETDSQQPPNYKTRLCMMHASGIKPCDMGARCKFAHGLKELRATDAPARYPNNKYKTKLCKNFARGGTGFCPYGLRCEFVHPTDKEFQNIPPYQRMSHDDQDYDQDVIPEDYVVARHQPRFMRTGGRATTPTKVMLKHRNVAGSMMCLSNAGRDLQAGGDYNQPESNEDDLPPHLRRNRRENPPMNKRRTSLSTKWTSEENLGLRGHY
The assay is described as follows: potency of MEX-5 RNA-binding blockers – biochemical, C. elegans, fluorescence polarization, dose response (AID 1960).

Assay [13] deals with T7, Polyadenylate-binding protein 1 (Homo sapiens, UniProt P11940). Nature of the assay: MLLE binding blockers, Cy5 peptide tracer – biochemical, fluorescence polarization, Cy5-PAM2 peptide, secondary, miRNA deadenylation inhibitor project, dose response (AID 602260). The class given is functional. The conditions noted are these: read-out: IC50_Mean.
In assay [14] the target is T7, Polyadenylate-binding protein 1. The assay is described as follows: MLLE domain peptide-binding blockers, IC50 – biochemical, fluorescence polarization, FITC-PAM2 peptide, dose response (AID 602259). It counts as functional. As to conditions: read-out: IC50_Mean.
The nature of assay [15]: viability loss in HepG2 liver cells – cell-based, ATP luminescence, cherry-pick, set 6, cytotoxicity control, dose response (AID 1053125). The class given is functional.
The target in assay [16] is T8, Alkaline phosphatase, tissue-nonspecific isozyme (Homo sapiens, UniProt P05186).
T8 sequence (P05186 whole entry): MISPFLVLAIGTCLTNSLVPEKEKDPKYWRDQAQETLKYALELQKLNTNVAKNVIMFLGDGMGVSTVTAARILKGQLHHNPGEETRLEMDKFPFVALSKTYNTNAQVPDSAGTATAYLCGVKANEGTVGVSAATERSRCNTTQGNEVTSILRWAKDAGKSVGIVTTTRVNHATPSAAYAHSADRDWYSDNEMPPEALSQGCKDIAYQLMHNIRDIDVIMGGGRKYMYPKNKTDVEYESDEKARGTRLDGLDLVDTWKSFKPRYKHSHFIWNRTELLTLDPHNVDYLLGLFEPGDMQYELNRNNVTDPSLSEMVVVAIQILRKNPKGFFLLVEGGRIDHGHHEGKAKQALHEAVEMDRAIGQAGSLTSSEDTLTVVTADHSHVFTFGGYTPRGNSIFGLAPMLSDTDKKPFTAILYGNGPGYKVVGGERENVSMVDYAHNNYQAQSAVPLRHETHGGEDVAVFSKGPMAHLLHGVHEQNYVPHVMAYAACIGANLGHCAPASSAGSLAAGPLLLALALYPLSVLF

The target in assay [17] is G-protein coupled receptor 35 (Homo sapiens, UniProt Q9HC97). Nature of the assay: inhibition of zaprinast-stimulated GPR35 beta-arrestin translocation – imaging, U2OS, beta-arrestin-GFP, zaprinast agonist, primary screen (AID 2058).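 Also: antagonist potency meaning inhibition of agonist-induced arrestin redistribution.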 It counts as functional.
Assay [18] can be described thus: Trypanosoma cruzi growth suppression in host cells – NIH3T3 host cells, beta-gal luminescence, confirmation (AID 2044).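 Also: intracellular parasites grown in NIH/3T3 mouse fibroblasts as host cells; luminescent beta-galactosidase reporter signal from transgenic T. cruzi replicating inside host cells; inhibitors lower the luminescence signal.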 The class given is functional, cell-based.
Assay [19] can be described thus: viability of PTEN-deleted HCT116 cells – cell-based, HCT116 PTEN knockout, dose response (AID 1047).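 Also: HCT116 colon tumor cells with PTEN knocked out; cells exposed to compound for 60 hours before readout; potency for loss of cell viability measured by luminescence.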 It counts as functional.
Assay [20] in a line: viability of HCT116 lacking mutant beta-catenin – cell-based, human colon tumor, dose response (AID 1045).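 Also: HCT116 colon tumor cells with beta catenin knocked out; cells exposed to compound for 60 hours.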 The class given is functional.
In the next assay the test system is INS1. The assay is described as follows: INS-1E survival protection against cytokine death – cell-based, luminescence, retest, dose response (AID 449756).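 Also: cell death triggered by IL-1 beta plus TNF-alpha plus IFN-gamma mixture; protective hits raise ATP signal compared with cytokine alone wells.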 The class given is functional. The conditions noted are these: Rattus norvegicus.
In assay [21] the target is NACHT, LRR and PYD domains-containing protein 3 (Homo sapiens, UniProt Q96P20). The assay is described as follows: NALP3 inhibitors in yeast, dose response, luminescent (AID 488799). The class given is functional.

The source made the active and inactive calls. Some results are limits rather than exact numbers.

T7 sequence (P11940 whole entry, the tested form may be a part): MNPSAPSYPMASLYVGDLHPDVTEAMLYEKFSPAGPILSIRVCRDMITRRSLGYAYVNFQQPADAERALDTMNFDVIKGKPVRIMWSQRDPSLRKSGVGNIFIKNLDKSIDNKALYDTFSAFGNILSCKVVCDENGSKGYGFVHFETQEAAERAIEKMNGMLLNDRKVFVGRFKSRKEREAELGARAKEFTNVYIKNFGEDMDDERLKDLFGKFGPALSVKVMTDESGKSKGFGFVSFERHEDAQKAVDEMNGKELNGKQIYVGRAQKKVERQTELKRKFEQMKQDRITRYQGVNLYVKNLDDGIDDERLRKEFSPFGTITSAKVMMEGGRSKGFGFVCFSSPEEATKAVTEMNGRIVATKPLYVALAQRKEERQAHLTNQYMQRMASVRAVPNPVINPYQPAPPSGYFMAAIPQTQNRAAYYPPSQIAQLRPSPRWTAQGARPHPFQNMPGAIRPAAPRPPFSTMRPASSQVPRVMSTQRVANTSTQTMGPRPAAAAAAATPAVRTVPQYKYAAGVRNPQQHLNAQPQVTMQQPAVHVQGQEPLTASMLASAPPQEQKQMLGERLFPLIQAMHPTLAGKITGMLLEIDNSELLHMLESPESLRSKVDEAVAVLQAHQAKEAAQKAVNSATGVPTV
T3 sequence (P0DMV8 whole entry): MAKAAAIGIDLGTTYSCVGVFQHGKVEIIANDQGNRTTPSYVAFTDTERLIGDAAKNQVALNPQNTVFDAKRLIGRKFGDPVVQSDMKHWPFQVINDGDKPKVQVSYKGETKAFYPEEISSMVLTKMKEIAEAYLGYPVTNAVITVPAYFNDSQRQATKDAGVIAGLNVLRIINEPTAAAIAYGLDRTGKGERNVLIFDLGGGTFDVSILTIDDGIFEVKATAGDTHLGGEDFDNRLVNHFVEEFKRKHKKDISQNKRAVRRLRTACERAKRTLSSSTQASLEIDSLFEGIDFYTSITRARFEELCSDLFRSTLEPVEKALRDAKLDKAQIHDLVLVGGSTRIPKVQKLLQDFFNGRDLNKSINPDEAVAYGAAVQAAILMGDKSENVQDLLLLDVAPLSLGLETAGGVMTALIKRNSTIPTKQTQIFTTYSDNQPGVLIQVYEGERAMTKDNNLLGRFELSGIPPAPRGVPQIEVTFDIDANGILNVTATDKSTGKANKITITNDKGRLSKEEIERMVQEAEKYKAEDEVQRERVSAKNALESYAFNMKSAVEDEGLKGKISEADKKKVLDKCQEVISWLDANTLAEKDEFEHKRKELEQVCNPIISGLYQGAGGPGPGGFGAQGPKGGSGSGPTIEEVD
T1 sequence (Q9NZJ5 whole entry): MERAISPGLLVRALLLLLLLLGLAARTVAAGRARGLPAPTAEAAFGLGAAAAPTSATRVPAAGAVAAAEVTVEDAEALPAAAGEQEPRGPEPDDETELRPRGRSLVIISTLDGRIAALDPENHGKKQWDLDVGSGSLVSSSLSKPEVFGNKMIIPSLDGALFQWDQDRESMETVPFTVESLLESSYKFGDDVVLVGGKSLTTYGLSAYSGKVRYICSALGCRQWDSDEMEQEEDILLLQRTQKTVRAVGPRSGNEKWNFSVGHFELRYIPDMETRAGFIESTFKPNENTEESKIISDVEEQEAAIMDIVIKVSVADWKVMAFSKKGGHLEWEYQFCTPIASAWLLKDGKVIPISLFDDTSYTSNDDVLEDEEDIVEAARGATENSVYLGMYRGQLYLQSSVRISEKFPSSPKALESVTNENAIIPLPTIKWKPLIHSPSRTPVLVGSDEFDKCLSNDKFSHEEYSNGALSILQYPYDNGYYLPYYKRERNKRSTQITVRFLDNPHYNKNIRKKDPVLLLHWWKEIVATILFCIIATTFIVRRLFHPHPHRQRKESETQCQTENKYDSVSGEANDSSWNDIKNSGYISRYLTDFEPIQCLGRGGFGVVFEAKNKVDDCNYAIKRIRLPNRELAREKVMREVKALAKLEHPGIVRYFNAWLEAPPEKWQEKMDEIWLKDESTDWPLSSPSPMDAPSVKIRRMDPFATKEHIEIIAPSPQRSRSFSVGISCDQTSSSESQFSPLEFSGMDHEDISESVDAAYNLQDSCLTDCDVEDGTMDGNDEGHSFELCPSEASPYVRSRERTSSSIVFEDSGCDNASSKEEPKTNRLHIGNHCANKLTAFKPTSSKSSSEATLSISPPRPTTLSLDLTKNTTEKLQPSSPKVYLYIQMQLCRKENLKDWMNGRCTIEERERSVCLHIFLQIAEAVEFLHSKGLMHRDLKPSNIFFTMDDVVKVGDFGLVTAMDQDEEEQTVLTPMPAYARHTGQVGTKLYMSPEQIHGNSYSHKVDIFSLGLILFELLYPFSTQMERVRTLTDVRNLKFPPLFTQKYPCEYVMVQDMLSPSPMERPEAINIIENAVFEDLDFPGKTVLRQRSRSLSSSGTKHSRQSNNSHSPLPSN
Sequence of NACHT, LRR and PYD domains-containing protein 3 (Q96P20 whole entry, the tested form may be a part): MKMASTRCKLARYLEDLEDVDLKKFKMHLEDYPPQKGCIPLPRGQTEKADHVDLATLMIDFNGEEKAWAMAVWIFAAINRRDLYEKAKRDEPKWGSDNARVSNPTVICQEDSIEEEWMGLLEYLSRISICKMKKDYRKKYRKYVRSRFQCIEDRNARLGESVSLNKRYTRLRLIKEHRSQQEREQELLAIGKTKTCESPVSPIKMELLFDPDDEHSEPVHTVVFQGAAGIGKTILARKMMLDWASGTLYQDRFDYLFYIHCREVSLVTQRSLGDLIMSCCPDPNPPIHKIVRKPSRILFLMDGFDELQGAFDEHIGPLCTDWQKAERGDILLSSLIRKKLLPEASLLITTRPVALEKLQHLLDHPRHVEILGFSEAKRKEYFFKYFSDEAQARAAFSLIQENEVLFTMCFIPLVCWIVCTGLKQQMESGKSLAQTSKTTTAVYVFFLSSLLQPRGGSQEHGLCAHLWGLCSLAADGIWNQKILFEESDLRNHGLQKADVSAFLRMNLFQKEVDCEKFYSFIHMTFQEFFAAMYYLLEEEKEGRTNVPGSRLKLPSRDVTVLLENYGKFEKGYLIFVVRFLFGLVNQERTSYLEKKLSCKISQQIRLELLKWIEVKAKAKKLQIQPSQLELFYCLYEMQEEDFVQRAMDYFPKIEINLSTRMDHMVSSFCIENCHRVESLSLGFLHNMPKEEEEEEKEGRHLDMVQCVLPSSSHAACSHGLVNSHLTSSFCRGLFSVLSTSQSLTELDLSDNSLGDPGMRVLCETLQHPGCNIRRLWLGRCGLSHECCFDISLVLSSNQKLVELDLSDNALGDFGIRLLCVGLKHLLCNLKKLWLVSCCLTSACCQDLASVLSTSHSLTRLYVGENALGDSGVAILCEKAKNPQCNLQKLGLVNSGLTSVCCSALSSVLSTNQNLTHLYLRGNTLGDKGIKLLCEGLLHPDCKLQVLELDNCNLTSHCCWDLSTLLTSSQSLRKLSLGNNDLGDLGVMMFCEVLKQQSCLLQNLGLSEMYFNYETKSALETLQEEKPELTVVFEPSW
Sequence of G-protein coupled receptor 35 (Q9HC97 whole entry): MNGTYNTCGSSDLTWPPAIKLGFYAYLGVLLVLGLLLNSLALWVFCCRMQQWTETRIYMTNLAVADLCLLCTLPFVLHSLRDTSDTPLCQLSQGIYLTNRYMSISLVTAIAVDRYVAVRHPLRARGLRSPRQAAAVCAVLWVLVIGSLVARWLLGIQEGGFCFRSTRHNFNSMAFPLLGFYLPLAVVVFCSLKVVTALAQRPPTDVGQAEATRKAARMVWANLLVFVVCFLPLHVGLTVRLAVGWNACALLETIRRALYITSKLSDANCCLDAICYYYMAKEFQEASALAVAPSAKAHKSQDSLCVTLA

The term EC50 denotes the concentration that produces a half-maximal response. Turning to `O/N=C/c1ccc2cccc(O)c2n1`, the EC50 in assay [1] and in [2] was > 55.7 µM (not active) throughout.

Turning to `CCOC(=O)C(C)Oc1cccc2c(=O)n(CC(=O)NCc3ccc(F)cc3)ccc12` (centres undefined), the concentration for a half-maximal effect (EC50) was 0.3 µM (active) in assay [3]; > 12 µM (not active) in assay [4]; 1.67 µM (active) in “cells”; < 0.1 µM (active) in [5]; > 12 µM (inconclusive) in assay [6]. The IC50 in assay [7] is > 80 µM (inactive).

One may read the AC50 as the concentration at which the activity in the assay is half-maximal. Consider `Nc1cccc2c1C(=O)N(c1ccccc1)C2=O`, for which the IC50 on Protein Rev is 7.86 µM (active); in assay [8], > 100 µM (not active); in assay [9], 2.9 µM (active); in [11] it was 12.4 µM (active); in [13], > 66 µM (inactive); in assay [14] it was 24 µM (inactive). For the same compound, the EC50 in [10] is 17 µM (active); in assay [12] it was 10.5 µM (active). Also, the AC50 in assay [15] is > 52 µM (inactive).

Regarding `CCn1c(/C=N/Nc2ccc(C(=O)O)cc2)nc2ccccc21`, in assay [16], the EC50 was 88.3 µM (not active).

Turning to `COc1ccc(/N=C2\S/C(=C\c3ccc(N4CCOCC4)o3)C(=O)N2CCc2c[nH]c3ccccc23)cc1`, the IC50 in [17] is 1.49 µM (active). The EC50 in assay [18] was 0.335 µM (active); in assay [19], 10 µM (active); in assay [20] it was 7.54 µM (active). Besides, in the assay with INS1, the AC50 was 7.09 µM (active).

With `Cc1cccc(C(=O)ONC(=N)Cc2cccc3ccccc23)c1`, in [21], the IC50 was 1.62 µM (active).

Source of the values: ChEMBL document CHEMBL1201862, “PubChem BioAssay data set” (2004).
